This note sets out measurements from patent publication US10005771B2, “Bicyclic derivatives having β2 adrenergic agonist and M3 muscarinic antagonist activities” (Almirall, S.A., priority 2014, dated 2018).

Experiment [1] concerns the target T1, human adrenergic β2 receptor (Homo sapiens, UniProt P07550).
T1 construct: purchased Perkin Elmer; host or cells: Sf9 cells
The experiment is described as follows: Human adrenergic β2 receptor binding assay (3H-CGP12177, Sf9 membranes). The following applies: membranes from Sf9 cells, 0.6 nM 3H-CGP12177, 60 minutes at room temperature. The protocol:
Test 1: Human Adrenergic β1 and β2 Receptor Binding Assays
The study of binding to human adrenergic beta1 and beta2 receptors was performed using commercial membranes prepared from Sf9 cells where they are overexpressed (Perkin Elmer). The membrane suspensions (16 μg/well for beta1 and 5 μg/well for beta2) in assay buffer (75 mM Tris/HCl with 12.5 mM MgCl2 and 2 mM EDTA pH=7.4) were incubated with 0.14 or 0.6 nM of 3H-CGP12177 (Amersham) for beta 1 and beta 2 receptors respectively in a final volume of 250 μl, in GFC Multiscreen 96 well plates (Millipore) previously treated with assay buffer containing 0.3% PEI (Sigma). Non specific binding was measured in the presence of 1 μM propanolol. Incubation was maintained for 60 minutes at room temperature and with gentle shaking. The binding reactions were terminated by filtration and washing with 2.5 volumes of Tris/HCl 50 mM pH=7.4. The affinity of each test compound to the receptor was determined by using ten different concentrations ran in duplicate. IC50s were calculated using Activity Base software from IDBS and the four parameters-log equation.

Experiment [2] concerns the target T2, human muscarinic M3 receptors (Homo sapiens, UniProt P20309).
T2 construct: purchased Perkin Elmer; host or cells: CHO-K1 cells
Nature of the experiment: Human muscarinic M3 receptors binding assay ([3H]-NMS, CHO-K1 membranes). The following applies: membranes from CHO-K1 cells, [3H]-NMS radioligand, two hours incubation. The protocol: Test 2: Human Muscarinic M3 Receptors Binding Assays
The study of binding to human muscarinic M3 receptors was performed using commercial membranes (Perkin Elmer) prepared from CHO-K1 cells.
Radioligand binding experiments were conducted in 96 polypropylene well plates in a total volume of 200 μl. All reagents were dissolved in assay binding buffer (PBS with calcium and magnesium, SIGMA), except compounds that were dissolved in DMSO 100%. Non-specific binding (NSB) was measured in the presence of 1 μM atropine. [3H]-NM, used as the radioligand was incubated with membranes that express human muscarinic M3 at concentration of 4.9 μg/well.
After an incubation period of two hours with gentle shaking, 150 μl of the reaction mix were transferred to 96 GF/C filter plates (Millipore), previously treated with wash buffer (Tris 50 mM; NaCl 100 mM; pH: 7.4), containing 0.05% PEI (Sigma) during one hour. Bound and free [3H]-NMS were separated by rapid vacuum filtration in a manifold from Millipore and washed four times with ice cold wash buffer. After drying 30 min, 30 μl of OPTIPHASE Supermix were added to each well and radioactivity quantified using a Microbeta microplate scintillation counter.
The affinity of each test compound to the receptor was determined by using ten different concentrations ran in duplicate. IC50s were calculated using Activity Base software from IDBS and the four parameters-log equation.

T2 sequence (P20309 whole entry): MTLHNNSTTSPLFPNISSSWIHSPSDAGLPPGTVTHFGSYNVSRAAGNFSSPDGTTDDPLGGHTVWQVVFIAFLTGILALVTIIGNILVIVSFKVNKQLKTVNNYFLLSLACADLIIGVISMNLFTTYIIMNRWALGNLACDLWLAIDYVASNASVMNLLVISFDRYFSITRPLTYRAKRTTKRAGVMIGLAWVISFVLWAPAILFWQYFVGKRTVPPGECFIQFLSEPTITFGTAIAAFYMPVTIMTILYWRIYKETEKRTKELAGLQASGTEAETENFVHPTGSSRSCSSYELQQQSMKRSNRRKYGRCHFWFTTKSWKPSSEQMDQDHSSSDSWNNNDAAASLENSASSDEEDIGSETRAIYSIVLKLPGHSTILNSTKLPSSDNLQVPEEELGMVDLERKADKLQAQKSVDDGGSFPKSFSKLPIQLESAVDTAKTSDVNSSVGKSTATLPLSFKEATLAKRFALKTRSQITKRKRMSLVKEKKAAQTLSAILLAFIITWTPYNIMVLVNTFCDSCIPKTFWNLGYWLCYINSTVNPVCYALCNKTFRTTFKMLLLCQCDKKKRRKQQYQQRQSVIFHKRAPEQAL

The IC50 is the concentration that inhibits the measured activity by half. A lower IC50 goes with greater potency in that assay. With `COc1cc(OCC(=O)OCCCc2cccc(C3(C(=O)O[C@H]4CN5CCC4CC5)CCCCC3)c2)c(Cl)cc1CNC[C@H](O)c1ccc(O)c2[nH]c(=O)ccc12` [Example 10, (3R)-1-azabicyclo[2.2.2]oct-3-yl 1-{3-[3-({[2-chloro-4-({[(2R)-2-hydroxy-2-(8-hydroxy-2-oxo-1,2-dihydroquinolin-5-yl)ethyl]amino}methyl)-5-methoxyphenoxy]acetyl}oxy)propyl]phenyl}cyclohexanecarboxylate], the half-maximal inhibitory concentration (IC50) was 7.3 nM in experiment [1] and 0.88 nM in experiment [2].

Take `O=C(CCCc1cccc(C2(C(=O)O[C@H]3CN4CCC3CC4)CCCCC2)c1)NCCCCCNC[C@H](O)c1ccc(O)c2[nH]c(=O)ccc12` [Example 7, (3R)-1-azabicyclo[2.2.2]oct-3-yl 1-(3-{4-[(5-{[(2R)-2-hydroxy-2-(8-hydroxy-2-oxo-1,2-dihydroquinolin-5-yl)ethyl]amino}pentyl)amino]-4-oxobutyl}phenyl)cyclo hexanecarboxylate]: the 50% inhibitory concentration (IC50) in experiment [1] amounted to 6.7 nM; in experiment [2] it was 1.5 nM.

Turning to `COc1cc(NC(=O)CCCc2cccc(C3(C(=O)OCC4CCN(C)CC4)CCCCC3)c2)c(Cl)cc1CNC[C@H](O)c1ccc(O)c2[nH]c(=O)ccc12` [Example 29, (1-methylpiperidin-4-yl)methyl 1-[3-(4-{[2-chloro-4-({[(2R)-2-hydroxy-2-(8-hydroxy-2-oxo-1,2-dihydroquinolin-5-yl)ethyl]amino}methyl)-5-methoxyphenyl]amino}-4-oxobutyl)phenyl]cyclohexanecarboxylate], the results for the IC50 in experiment [1] and in experiment [2] were 2.2 nM and 0.57 nM, respectively.

In the case of `O=C(O[C@H]1CN2CCC1CC2)C1(c2cccc(CCCCn3nnc4cc(CNC[C@H](O)c5ccc(O)c6[nH]c(=O)ccc56)ccc43)c2)CCCCC1` [Example 5, (3R)-1-azabicyclo[2.2.2]oct-3-yl 1-(3-{4-[5-({[(2R)-2-hydroxy-2-(8-hydroxy-2-oxo-1,2-dihydroquinolin-5-yl)ethyl]amino}methyl)-1H-1,2,3-benzotriazol-1-yl]butyl}phenyl)cyclohexanecarboxylate], the results for the IC50 in experiment [1] and in experiment [2] were 28 nM and 1.1 nM, respectively.

Turning to “(3R)-1-azabicyclo[2.2.2]oct-3-yl 1-(3-{4-[{[2-chloro-4-({[2-hydroxy-2-(8-hydroxy-2-oxo-1,2-dihydroquinolin-5-yl)ethyl]amino}methyl)-5-methoxyphenoxy]acetyl}(methyl)amino]butyl}phenyl)cyclohexanecarboxylate [Example 26]”, the values for the IC50 in experiment [1] and in experiment [2] were 3 nM and 0.53 nM, respectively.

Turning to `O=C(O[C@H]1CN2CCC1CC2)C1(c2cccc(CCCCn3c(=O)oc4cc(CNC[C@H](O)c5ccc(O)c6[nH]c(=O)ccc56)ccc43)c2)CCCCC1` [Example 1, (3R)-1-azabicyclo[2.2.2]oct-3-yl 1-(3-{4-[6-({[(2R)-2-hydroxy-2-(8-hydroxy-2-oxo-1,2-dihydroquinolin-5-yl)ethyl]amino}methyl)-2-oxo-1,3-benzoxazol-3(2H)-yl]butyl}phenyl)cyclohexanecarboxylate], the IC50 amounted to 4.3 nM in experiment [1] and 1.6 nM in experiment [2].

With `O=C(NCCCCc1cccc(C2(C(=O)O[C@H]3CN4CCC3CC4)CCCCC2)c1)c1ccc(CNC[C@H](O)c2ccc(O)c3[nH]c(=O)ccc23)nc1` [Example 21, (3R)-1-azabicyclo[2.2.2]oct-3-yl 1-{3-[4-({[6-({[(2R)-2-hydroxy-2-(8-hydroxy-2-oxo-1,2-dihydroquinolin-5-yl)ethyl]amino}methyl)pyridin-3-yl]carbonyl}amino)butyl]phenyl}cyclohexanecarboxylate], the IC50 was 34 nM in experiment [1] and 0.6 nM in experiment [2].

For `COc1cc(C(=O)OCCCc2cccc(C3(C(=O)O[C@H]4CN5CCC4CC5)CCCCC3)c2)c(Cl)cc1CNC[C@H](O)c1ccc(O)c2[nH]c(=O)ccc12` [Example 13, 3-[3-(1-{[(3R)-1-azabicyclo[2.2.2]oct-3-yloxy]carbonyl}cyclohexyl)phenyl]propyl 2-chloro-4-({[(2R)-2-hydroxy-2-(8-hydroxy-2-oxo-1,2-dihydroquinolin-5-yl)ethyl]amino}methyl)-5-methoxybenzoate], the IC50 was 4.4 nM in experiment [1] and 0.62 nM in experiment [2].

On to `COc1cc(C(=O)N(C)CCCc2cccc(C3(C(=O)O[C@H]4CN5CCC4CC5)CCCCC3)c2)c(Cl)cc1CNC[C@H](O)c1ccc(O)c2[nH]c(=O)ccc12` [Example 12, (3R)-1-azabicyclo[2.2.2]oct-3-yl 1-(3-{3-[[2-chloro-4-({[(2R)-2-hydroxy-2-(8-hydroxy-2-oxo-1,2-dihydroquinolin-5-yl)ethyl]amino}methyl)-5-methoxybenzoyl](methyl)amino]propyl}phenyl)cyclohexanecarboxylate], for which the IC50 in experiment [1] was 10 nM; in experiment [2], 2.1 nM.

Regarding `O=C(CCCc1cccc(C2(C(=O)O[C@H]3CN4CCC3CC4)CCCCC2)c1)Nc1ccc(CNC[C@H](O)c2ccc(O)c3[nH]c(=O)ccc23)nc1` [Example 11, (3R)-1-azabicyclo[2.2.2]oct-3-yl 1-[3-(4-{[6-({[(2R)-2-hydroxy-2-(8-hydroxy-2-oxo-1,2-dihydroquinolin-5-yl)ethyl]amino}methyl)pyridin-3-yl]amino}-4-oxobutyl)phenyl]cyclohexanecarboxylate], the half-inhibitory concentration (IC50) in experiment [1] stood at 23 nM; in experiment [2] it was 0.49 nM.

`COc1cc(C(=O)NCCCc2cccc(C3(C(=O)O[C@H]4CN5CCC4CC5)CCCCC3)c2)c(Cl)cc1CNC[C@H](O)c1ccc(O)c2[nH]c(=O)ccc12` [Example 20, (3R)-1-azabicyclo[2.2.2]oct-3-yl 1-[3-(3-{[2-chloro-4-({[(2R)-2-hydroxy-2-(8-hydroxy-2-oxo-1,2-dihydroquinolin-5-yl)ethyl]amino}methyl)-5-methoxybenzoyl]amino}propyl)phenyl]cyclohexanecarboxylate]: the results for the IC50 in experiment [1] and in experiment [2] were 3.8 nM and 0.14 nM, respectively.

For `COc1cc(C(=O)NCCCCc2cccc(C3(C(=O)O[C@H]4CN5CCC4CC5)CCCCC3)c2)c(Cl)cc1CNC[C@H](O)c1ccc(O)c2[nH]c(=O)ccc12` [Example 9, (3R)-1-azabicyclo[2.2.2]oct-3-yl 1-[3-(4-{[2-chloro-4-({[(2R)-2-hydroxy-2-(8-hydroxy-2-oxo-1,2-dihydroquinolin-5-yl)ethyl]amino}methyl)-5-methoxybenzoyl]amino}butyl)phenyl]cyclohexanecarboxylate], the IC50 in experiment [1] worked out at 3.5 nM; in experiment [2], 0.95 nM.

With `COc1cc(C(=O)OCCCCc2cccc(C3(C(=O)O[C@H]4CN5CCC4CC5)CCCCC3)c2)c(Cl)cc1CNC[C@H](O)c1ccc(O)c2[nH]c(=O)ccc12` [Example 22, 4-[3-(1-{[(3R)-1-azabicyclo[2.2.2]oct-3-yloxy]carbonyl}cyclohexyl)phenyl]butyl 2-chloro-4-({[(2R)-2-hydroxy-2-(8-hydroxy-2-oxo-1,2-dihydroquinolin-5-yl)ethyl]amino}methyl)-5-methoxybenzoate], the IC50 was determined as 7.8 nM in experiment [1] and 0.29 nM in experiment [2].

In the case of `COc1cc(NCC(=O)NCCCc2cccc(C3(C(=O)O[C@H]4CN5CCC4CC5)CCCCC3)c2)c(Cl)cc1CNC[C@H](O)c1ccc(O)c2[nH]c(=O)ccc12` [Example 30, (3R)-1-azabicyclo[2.2.2]oct-3-yl 1-{3-[3-({N-[2-chloro-4-({[(2R)-2-hydroxy-2-(8-hydroxy-2-oxo-1,2-dihydroquinolin-5-yl)ethyl]amino}methyl)-5-methoxyphenyl]glycyl}amino)propyl]phenyl}cyclohexanecarboxylate], the figures for the concentration for half-maximal inhibition (IC50) in experiment [1] and in experiment [2] were 13 nM and 1.5 nM, respectively.

Consider `O=C(CCCc1cccc(C2(C(=O)O[C@H]3CN4CCC3CC4)CCCCC2)c1)N[C@H]1CC[C@H](CNC[C@H](O)c2ccc(O)c3[nH]c(=O)ccc23)CC1` [Example 3, (3R)-1-azabicyclo[2.2.2]oct-3-yl 1-[3-(4-{[trans-4-({[(2R)-2-hydroxy-2-(8-hydroxy-2-oxo-1,2-dihydroquinolin-5-yl)ethyl]amino}methyl)cyclohexyl]amino}-4-oxobutyl)phenyl]cyclohexanecarboxylate], for which the figures for the IC50 in experiment [1] and in experiment [2] were 4.2 nM and 1.7 nM, respectively.
